In ChEMBL document CHEMBL1136273, “Design and synthesis of factor Xa inhibitors and their prodrugs” (Bioorg Med Chem Lett, 2003):

target: Coagulation factor X (Homo sapiens, UniProt P00742); assay: Inhibitory concentration to coagulation factor X; conditions: not given
Sequence (P00742 41-179 limits assumed): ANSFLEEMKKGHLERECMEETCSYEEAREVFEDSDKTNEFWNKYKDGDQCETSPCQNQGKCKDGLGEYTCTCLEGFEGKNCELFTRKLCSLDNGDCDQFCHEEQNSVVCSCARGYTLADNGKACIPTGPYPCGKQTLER
Sequence (P00742 235-488 limits assumed): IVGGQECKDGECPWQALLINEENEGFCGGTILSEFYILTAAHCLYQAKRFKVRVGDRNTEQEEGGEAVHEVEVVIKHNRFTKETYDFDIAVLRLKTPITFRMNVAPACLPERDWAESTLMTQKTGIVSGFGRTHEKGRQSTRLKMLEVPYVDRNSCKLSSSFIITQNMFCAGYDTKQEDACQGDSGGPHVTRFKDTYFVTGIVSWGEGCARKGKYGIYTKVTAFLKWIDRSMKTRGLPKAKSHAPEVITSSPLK

Structure (SMILES)	IC50 [nM]
C/C(=C(\F)C(=O)Nc1ccc(-c2ccccc2S(N)(=O)=O)cc1)c1cccc(C(=N)NN(C)C)c1	490
C/C(=C(\F)C(=O)Nc1ccc(-c2ccccc2S(N)(=O)=O)cc1Br)c1cccc(C(=N)NN)c1	57
CNNC(=N)c1cccc(/C(C)=C2/CC(=O)N(c3ccc(-c4ccccc4S(N)(=O)=O)cc3)C2=O)c1	48
C/C(=C(\F)C(=O)Nc1ccc(-c2ccccc2S(N)(=O)=O)cc1)c1cccc(C(=N)NO)c1	440
C/N=C(\N)c1cccc(/C(C)=C(/F)C(=O)Nc2ccc(-c3ccccc3S(N)(=O)=O)cc2)c1	890
C/C(=C(\F)C(=O)Nc1ccc(-c2ccccc2S(N)(=O)=O)cc1)c1cccc(C(=N)NNCC(F)(F)F)c1	420
C/C(=C(\F)C(=O)Nc1ccc(-c2ccccc2S(N)(=O)=O)cc1)c1cccc(C(=N)N2CCC2)c1	890
C/C(=C(\F)C(=O)Nc1ccc(-c2ccccc2S(N)(=O)=O)cc1Cl)c1cccc(C(=N)NN)c1	41
C/C(=C1\CC(=O)N(c2ccc(C(=O)N3CCCC3)cc2)C1=O)c1cccc(C(=N)N)c1	180
C/C(=C(\F)C(=O)Nc1ccc(-c2ccccc2S(N)(=O)=O)cc1Br)c1cccc(C(=N)NO)c1	1180
C/C(=C(\F)C(=O)Nc1ccc(-c2ccccc2S(N)(=O)=O)cc1)c1cccc(C(=N)NC#N)c1	253
C/C(=C(\F)C(=O)Nc1ccc(-c2ccccc2S(N)(=O)=O)cc1)c1cccc(C(=N)NNc2ccccc2)c1	750
C/C(=C(\F)C(=O)Nc1ccc(-c2ccccc2S(N)(=O)=O)cc1F)c1cccc(C(=N)NN)c1	110
C/C(=C1\CC(=O)N(c2ccc(C(C)(C)C)cc2)C1=O)c1cccc(C(=N)N)c1	29
N=C(N)c1cccc(/C(=C(/F)C(=O)Nc2ccc(-c3ccccc3S(N)(=O)=O)cc2)n2cccn2)c1	1
C/C(=C1\CC(=O)N(c2ccc(-c3ccccc3S(N)(=O)=O)cc2)C1=O)c1cccc(C(=N)NN)c1	78
C/C(=C(\F)C(=O)Nc1ccc(-c2ccccc2S(N)(=O)=O)cc1Cl)c1cccc(C(=N)NO)c1	750
C/C(=C(\F)C(=O)Nc1ccc(-c2ccccc2S(N)(=O)=O)cc1)c1ccc2[nH]nc(N)c2c1	5910
CNNC(=N)c1cccc(/C(C)=C(/F)C(=O)Nc2ccc(-c3ccccc3S(N)(=O)=O)cc2)c1	28
N=C(NO)c1cccc(/C(=C(/F)C(=O)Nc2ccc(-c3ccccc3S(N)(=O)=O)cc2)n2cccn2)c1	3790
C/C(=C(\F)C(=O)Nc1ccc(-c2ccccc2S(N)(=O)=O)cc1F)c1cccc(C(=N)NO)c1	1590
C/C(=C1\CC(=O)N(c2ccc(-c3ccccc3S(N)(=O)=O)cc2)C1=O)c1cccc(C(=N)NO)c1	710
CC(c1cccc(C(=N)N)c1)C1CC(=O)N(c2ccc(-c3ccccc3S(N)(=O)=O)cc2)C1=O (stereo unspecified)	120

test system: not listed separately; assay: Oral bioavailability in dog; assay type: ADME, organism-based, Canis lupus familiaris; conditions: in vivo

Structure (SMILES)	bioavailability [%]
N=C(N)c1cccc(/C(=C(/F)C(=O)Nc2ccc(-c3ccccc3S(N)(=O)=O)cc2)n2cccn2)c1	< 5
N=C(NO)c1cccc(/C(=C(/F)C(=O)Nc2ccc(-c3ccccc3S(N)(=O)=O)cc2)n2cccn2)c1	25

target: Prothrombin (Homo sapiens, UniProt P00734); assay: Inhibitory concentration required against Thrombin; conditions: not given

Structure (SMILES)	IC50 [nM]
C/C(=C(\CC(N)=O)C(=O)Nc1ccc(-c2ccccc2S(N)(=O)=O)cc1)c1cccc(C(=N)N)c1	1600
C/C(=C1\CC(=O)N(c2ccc(-c3ccccc3S(N)(=O)=O)cc2)C1=O)c1cccc(C(=N)N)c1	670
C/C(=C1\CC(=O)N(c2ccc(C(=O)N3CCCC3)cc2)C1=O)c1cccc(C(=N)N)c1	10700
C/C(=C1\CC(=O)N(c2ccc(C(C)(C)C)cc2)C1=O)c1cccc(C(=N)N)c1	76

test system: not listed separately; assay: Cmax in rats; assay type: ADME, organism-based; conditions: rat, in vivo

Structure (SMILES)	Cmax [ng/mL]
C/C(=C(\F)C(=O)Nc1ccc(-c2ccccc2S(N)(=O)=O)cc1Br)c1cccc(C(=N)N)c1	168
C/C(=C(\F)C(=O)Nc1ccc(-c2ccccc2S(N)(=O)=O)cc1Br)c1cccc(C(=N)NO)c1	630
